In paper PMC6272905, “In Vitro and In Vivo Characterization of Selected Fluorine-18 Labeled Radioligands for PET Imaging of the Dopamine D3 Receptor” (Molecules, 2016):
Where two headings read alike, the source gives them in different places.

Tests used:
[1] = In vivo stability in blood of living rats (radiometabolites); set-up: species or system rat
Procedure: For the determination of radioligand stability in vivo and detection of radiometabolites the respective radiotracer (15 MBq) was administered intravenous to male Sprague Dawley rats (200–250 g) under isoflurane anesthesia. Blood samples were drawn intravenous after 5, 15 and 30 min and centrifuged for 5 min at 2000 rpm in heparin-coated vials. An aliquot of 50 µL was taken from the supernatant and added to an equal volume of water (10% TFA). The protein precipitate was centrifuged off for 5 min at 25,000 rpm and an aliquot of the supernatant was fractioned with HPLC (Chromolith RP-18e, 100 mm × 4.6 mm, 4 mL/min, solvent A: water (0.1% TFA), solvent B: acetonitrile (0.1% TFA), gradient A/B: 90:10 to 0:100 in 15 min, λ = 214 nm). The fractions were then analyzed in the gamma-counter. To identify the fractions containing the intact radioligand, the retention time and fractioning of the respective tracer was previously assessed. Two independent experiments were performed.

[2] = Binding to proteins in human plasma in vitro; assay type: in vitro ADME; conditions: human vs rat plasma
Procedure: (§1) The free fraction in vitro was determined by adding the respective radioligand (100 kBq) to plasma or CSF (200 µL) and mixed vigorously. Aliquots of 20–50 µL were transferred to size exclusion chromatography columns (MicroSpin G-50; GE Healthcare GmbH, Solingen, Germany, centrifuged for two min at 2000 rpm, and the radioactivity in the filtrate and in the resin were measured in the gamma-counter. Three independent experiments were performed in triplicates.

D3 receptor [3] = target: T1, D3 receptor (Rattus norvegicus, UniProt P19020); assay: In vitro autoradiography of coronal rat brain sections; assay type: binding; conditions: displacement with BP897
T1 construct: In vitro autoradiography of coronal rat brain sections after incubation with the respective radioligand; from tissue; host or cells: coronal brain cryosections (20 µm) of male Sprague Dawley rats
Procedure: Male Sprague Dawley rats (200–250 g) were sacrificed by decapitation under deep isoflurane anesthesia and brains were removed and frozen in cooled hexane at −70 °C. Coronal brain sections (20 µm) were cut on a cryostat microtome (HM550, Microm-Thermo Fisher Scientific, Walldorf, Germany) and thaw-mounted on covered glass slides (Histobond®, Marienfeld, Lauda Königshofen, Germany). The thaw mounted sections were stored at −20 °C up to 14 days.
The cryostat sections were pre-incubated for 15 min in incubation buffer (50 mM Tris-HCl, 40 mM NaCl, pH 7.4) at room temperature. The sections were then placed in incubation buffer containing 5 MBq of the respective tracer. For displacement studies BP897 (50 nM or 1 µM) was added. The sections were incubated at room temperature for 45 min and afterwards washed in ice cold incubation buffer for 3 × 5 min. Subsequently, they were dipped in water and after drying placed on a phosphor imaging screen (Fujitsu, Berlin, Germany) over night. The screens were analyzed with a DUERR Medical HD-CR 35 Bio (Raytest, Straubenhardt, Germany) and evaluated using the software AIDA image analyzer (Raytest). For anatomical identification of brain regions, the sections were compared with figures in the rat brain atlas.

dopamine D3 receptor = assay: Dynamic small-animal PET recordings; assay type: in vivo; conditions: rat
Procedure: Small-animal PET imaging studies were conducted with male Sprague Dawleys rats (250–300 g) on a Inveon microPET scanner (Siemens Healthcare, Erlangen, Germany) under isoflurane (3%) anesthesia. After intravenous injection of [^18F]2b (10–15 MBq), dynamic emission recordings consisting of 13 frames of duration increasing from 30 s to 10 min were acquired to a total of 60 min. For displacement studies BP897 (1 mg/kg) was administered 30 min prior to radioligand injection. Dynamic emission images were corrected for attenuation and decay, and reconstructed by the iterative maximum a posteriori estimation, using software installed in the Inveon PET for dead time and random correction. The dynamic PET scan was then evaluated using the software Amide. The regions of interest were evaluated voxel based and the mean activity in %ID/g of each frame calculated.

[4] = Free fraction in rat plasma; assay type: in vitro ADME; conditions: for bound to proteins in plasma: of the injected dose; for free radioligand in rat plasma: Figure 3b
Procedure: as §1
For the ex vivo determination of the radioligands binding to proteins the respective tracer (15 MBq) was administered intravenous to male Sprague Dawley rats (200–250 g) under isoflurane anesthesia. Blood samples were drawn intravenous after 5, 15 and 30 min and centrifuged for 5 min at 2000 rpm in heparin-coated vials. An aliquot of 50 µL was taken from the supernatant and added to an equal volume of water (10% TFA). The protein precipitate was centrifuged off for 5 min at 25,000 rpm and analyzed together with a further 50 µL aliquot of the supernatant in the gamma-counter. Two independent experiments were performed.

[5] = Determination of log D7.4 (experimental); assay type: physicochemical; conditions: pH 7.4, n = 6
Procedure: Human serum was purchased (Biochrom, Biochrom, UK). Human plasma and cerebrospinal fluid was a kind gift from the laboratory of Prof. P. Lewczuk of the clinical neurochemistry in Erlangen. Rat plasma was collected from male Sprague Dawley blood samples. The blood samples were collected intravenous and centrifuged at 2000 rpm for 15 min in heparin coated vials. The supernatant was stored in aliquots at −20 °C. Radioactivity was measured with radio HPLC or in a gamma-counter (Wallac Wizard, PerkinElmer, Waltham, MA, USA). The determination of the distribution coefficient at pH 7.4 (log D7.4) has been previously published.

D3 receptor [6] = conditions: cited from earlier work
[7] = In vitro stability in human serum; assay type: in vitro ADME; conditions: 37 °C, after 120 min
Procedure: For the in vitro stability, an aliquot of the respective radioligand (1–5 MBq) was added to human serum (200 μL) and incubated at 37 °C. Aliquots (20 μL) were taken after 15, 30 and 120 min and analyzed by radio-HPLC (Method 1).

P-gp [8] = target: T2, P-gp (Homo sapiens, UniProt P08183); assay: P-gp inhibition assay (cellular uptake) in EA.hy926 cells; assay type: cell-based; conditions: with vs without cyclosporin-A
T2 construct: endogenous in cells; host or cells: Caco-2
Procedure: (§2) EA.hy926 cells were seeded in culture medium at confluency the day prior to experiment or in case of the Caco-2 cells two days prior to experiment in 24-multiwell plates (Greiner Bio-One International GmbH, Kremsmünster, Austria). On the day of the experiment the culture medium was removed and the cells were washed once with PBS (500 µL). Culture medium supplemented with cyclosporine-A (5 µM for EA.hy926 and 10 µM for Caco-2) was added and the cells were incubated at 37 °C for 30 min. Afterwards 1 MBq of [^18F]2b was added to each well and incubated for further 30, 60 and 90 min. After incubation cells were washed with ice cold PBS (500 µL) and lysated with 0.1 M NaOH. The medium and lysates were analysed in the gamma-counter. To identify cyclosporine-A induced accumulation the experiment was also performed using culture medium lacking cyclosporine-A. As positive control the experiment was performed with ^99mTc-MIBI (100 kBq/well), a known P-gp substrate. To determine the lowermost concentration with which a maximum effect was obtained, cyclosporine-A was applied in a range of 0–50 µM and observed in a time frame of 30–120 min for both cell lines.

P-gp [9] = target: T2, P-gp; assay: P-gp inhibition assay (cellular uptake) in Caco-2 cells; assay type: cell-based; conditions: with vs without cyclosporin-A
Procedure: as §2

P-gp [10] = target: T2, P-gp; assay: Bi-directional transport assay in Caco-2 cells; assay type: cell-based
Procedure: The procedure of initially adding equal concentrations to both compartments was adapted from the literature. Caco-2 cells were seeded near confluency in thin-cert inserts (translucent, Ø 0.4 µm, 24 well PET membrane, Greiner) and placed in multiwell plates (CELLSTAR 24 Multiwell plates, Greiner). The culture medium basolateral (multiwell) and apical (insert) was renewed every 2–3 days. Approximately 12 days after seeding the Caco-2 cells reached their highest trans-epithelial resistance, which was monitored every four days and on day of the experiment. An immunocytochemistry was also performed with an additional insert (translucent) to confirm stable formation of tight-junctions and cell monolayer. Culture medium was then removed and the cells were washed with PBS. Culture medium supplemented with cyclosporin (10 µM) was added to both compartments and the cells were incubated at 37 °C for 30 min. Afterwards 1 MBq [^18F]2b was added to each compartment. An aliquot was taken from each compartment after 0, 30, 60 and 90 min and analyzed in the gamma-counter. To identify cyclosporine-A induced accumulation the experiment was also performed using culture medium lacking cyclosporine-A. As positive control the experiment was performed with ^99mTc-MIBI (100 kBq/ compartment).

[11] = set-up: method as in PMID 24339325, PMID 26707848; conditions: over 120 min, previously reported; cited from earlier work
[12] = set-up: method as in PMID 24339325, PMID 26707848; conditions: experimental, pH 7.4, n = 6, previously reported; cited from earlier work
[13] = Caco-2, absence of cyclosporin-A, up to 90 min

T2 sequence (P08183 whole entry): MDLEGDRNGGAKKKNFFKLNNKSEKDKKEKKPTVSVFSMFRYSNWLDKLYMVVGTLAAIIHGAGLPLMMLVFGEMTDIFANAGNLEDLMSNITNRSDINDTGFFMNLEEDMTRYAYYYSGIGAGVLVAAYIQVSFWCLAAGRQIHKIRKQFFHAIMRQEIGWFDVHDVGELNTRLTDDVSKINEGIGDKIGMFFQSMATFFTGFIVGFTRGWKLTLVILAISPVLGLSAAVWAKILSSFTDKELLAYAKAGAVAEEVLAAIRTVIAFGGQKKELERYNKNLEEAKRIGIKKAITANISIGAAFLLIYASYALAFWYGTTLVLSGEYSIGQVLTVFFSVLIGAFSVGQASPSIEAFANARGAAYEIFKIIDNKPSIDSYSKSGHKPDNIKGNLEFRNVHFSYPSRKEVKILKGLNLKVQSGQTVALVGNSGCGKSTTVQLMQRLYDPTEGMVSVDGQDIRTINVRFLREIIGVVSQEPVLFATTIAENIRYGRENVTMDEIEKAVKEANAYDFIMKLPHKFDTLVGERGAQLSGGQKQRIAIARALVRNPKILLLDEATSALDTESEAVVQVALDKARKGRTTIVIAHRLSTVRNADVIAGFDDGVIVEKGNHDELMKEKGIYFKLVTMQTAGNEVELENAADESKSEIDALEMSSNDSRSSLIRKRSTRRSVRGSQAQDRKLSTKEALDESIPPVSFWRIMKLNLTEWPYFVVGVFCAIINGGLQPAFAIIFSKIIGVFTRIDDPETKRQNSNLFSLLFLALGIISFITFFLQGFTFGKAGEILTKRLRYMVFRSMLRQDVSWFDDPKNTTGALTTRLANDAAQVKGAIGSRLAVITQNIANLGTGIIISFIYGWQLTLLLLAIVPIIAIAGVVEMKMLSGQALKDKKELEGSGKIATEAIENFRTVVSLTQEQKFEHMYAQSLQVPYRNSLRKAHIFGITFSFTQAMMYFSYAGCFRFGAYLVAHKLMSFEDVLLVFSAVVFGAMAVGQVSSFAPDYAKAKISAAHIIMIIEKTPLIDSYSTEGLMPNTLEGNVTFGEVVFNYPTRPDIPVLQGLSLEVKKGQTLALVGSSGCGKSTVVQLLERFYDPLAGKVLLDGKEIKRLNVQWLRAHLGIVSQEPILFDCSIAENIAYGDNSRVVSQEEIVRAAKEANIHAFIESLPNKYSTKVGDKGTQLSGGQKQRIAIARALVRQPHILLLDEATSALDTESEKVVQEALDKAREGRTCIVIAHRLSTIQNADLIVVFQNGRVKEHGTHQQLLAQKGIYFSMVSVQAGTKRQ
T1 sequence (P19020 whole entry): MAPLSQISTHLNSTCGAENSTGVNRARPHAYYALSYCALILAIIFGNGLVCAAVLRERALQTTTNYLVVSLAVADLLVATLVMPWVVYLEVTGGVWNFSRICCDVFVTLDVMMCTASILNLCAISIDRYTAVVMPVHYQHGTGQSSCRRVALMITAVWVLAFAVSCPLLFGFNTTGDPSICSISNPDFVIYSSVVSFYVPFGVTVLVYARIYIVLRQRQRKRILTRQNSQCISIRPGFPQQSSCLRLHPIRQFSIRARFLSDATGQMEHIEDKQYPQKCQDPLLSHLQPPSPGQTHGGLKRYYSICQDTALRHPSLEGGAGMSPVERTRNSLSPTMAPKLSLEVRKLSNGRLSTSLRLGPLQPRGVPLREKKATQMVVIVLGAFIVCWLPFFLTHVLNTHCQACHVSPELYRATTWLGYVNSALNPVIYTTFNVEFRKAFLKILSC

## O=C(NCCC(O)CN1CCN(c2cccc(Cl)c2Cl)CC1)c1ccc(F)nc1 (centres unmarked) [[^18F]1, N-(4-(4-(2,3-Dichlorophenyl)piperazine-1-yl)-3-hydroxybutyl)-6-fluoronicotinamide]
[1]; 15 min post intravenous injection
  intact tracer in rat plasma: 57%
[1]; nearly constant over the total sampling time
  intact tracer in rat plasma: ~ 60%
[2]
  binding to human plasma higher than in rat plasma: 20%–30%
D3 receptor [3]
  binding pattern in rat brain sections: pronounced non-specific binding in the corpus callosum and anterior commissure
Dopamine D3 receptor; 30 min p.i.
  uptake in the pituitary gland: 0.45 %ID/g
Dopamine D3 receptor; after 50 seconds
  maximum uptake in the cerebral matter: 0.25 %ID/g
Dopamine D3 receptor; over the 60 min of recording
  uptake in the cerebral matter after wash-out: 0.17 %ID/g
[4]
  bound to proteins in plasma: 58%
  free radioligand in rat plasma: 42%
[5]
  logD: 2.5 ± 0.04
D3 receptor [6]
  Ki: 1.9 nM
[7]
  decomposition in human serum: ≤ 2%

## [99Tc].[C-]#[N+]CC(C)(C)OC.[C-]#[N+]CC(C)(C)OC.[C-]#[N+]CC(C)(C)OC.[C-]#[N+]CC(C)(C)OC.[C-]#[N+]CC(C)(C)OC.[C-]#[N+]CC(C)(C)OC [^99mTc-MIBI, ^99mTc-methylisobutylnitrile, reference compound]
P-gp [8]
  influence of cyclosporin-A on cellular uptake: accumulated
P-gp [9]
  influence of cyclosporin-A on cellular uptake: accumulated
P-gp [10]; [13]
  concentration in the apical compartment, % of the initial concentration: 120%
  concentration in the basolateral compartment, % of the initial concentration: 70%
P-gp [10]; Caco-2, presence of cyclosporin-A
  concentration in the basolateral compartment: remained nearly constant
P-gp [10]; Caco-2, presence of cyclosporin-A (^99mTc-MIBI after 60 and 90 min; [^18F]2b after 30 min)
  concentration in the apical compartment, % of the initial concentration: 90%

## O=C(/N=N/c1ccc([18F])cc1)NCCC(O)CN1CCN(c2cccc(Cl)c2Cl)CC1 (centres unmarked) [[^18F]2a]
D3 receptor [3]
  binding pattern in rat brain sections: homogenous non-specific binding throughout the whole rat brain sections
[11]
  decomposition in human serum: no decomposition was observed
Dopamine D3 receptor
  brain uptake smaller than for [^18F]2b, factor: 1.5
Dopamine D3 receptor; 25 min p.i.
  uptake in the pituitary gland: 0.6 %ID/g
[12]
  Log D7.4: 2.56 ± 0.01
[4]
  bound to proteins in plasma: 82%
  free radioligand in rat plasma: 18%
D3 receptor [6]
  Ki: 3.6 nM
